# Where two headings read alike, the source gives them in different places.
# How the values were obtained:
# [1] = Pharmacokinetics in Sprague Dawley rats, repeat oral administration for 15 days; format: in vivo, rat; settings: for AUC(0-inf) / Cmax / Tmax / half-life / AUC: Sprague-Dawley, rat, plasma, po, SD rats; for AUC: read-out: AUC24
# Procedure: The pharmacokinetics of Compound 102 following repeat oral administration for 15 days was evaluated in Sprague-Dawley rats. A total of 30 rats (15 males and 15 females) were divided into three dose groups (5 males/5 females). Compound 102 was suspended in a vehicle of 2% […]: 0.5% carboxymethyl cellulose (high viscosity) (50:50, v/v) at concentrations of 0.25, 0.75 and 2.5 mg/mL and animals were dosed via oral gavage at 1, 3 and 10 mg/kg once daily for 15 days. Tap water and a diet of rodent chow were provided to the animals ad libitum.
# Blood samples were collected on Day 1 and Day 15. Approximately 0.25 mL of blood was collected from each animal via jugular cannula on Day 1 and from tail vein on Day 15. Blood samples were taken 1, 2, 4, 8, 12 and 24 hr postdose. Each blood sample was collected into tubes containing lithium heparin and kept on wet ice pending centrifugation (max 2 hrs). Samples were centrifuged under refrigeration (2°−8° C. at 3000 g) for 10 minutes. Plasma was transferred into a pre-labeled tube (approximately 125 μL) placed on dry ice and stored frozen at −70° C. until analysis.
# 50 μL of plasma was extracted with 250 μL of acetonitrile and the plasma concentration of Compound 102 was determined by an LC-MS/MS method. The plasma concentration time data were analyzed by a non-compartmental pharmacokinetic method using WinNonlin. The results for pharmacokinetics (Mean±SD, n=5) is shown in Table 3 (Day 1) and Table 4 (Day 15).
# [2] = Toxicokinetics in Sprague Dawley rats (14-day oral study); format: in vivo, rat
# Procedure: A Sprague Dawley Rat model was used to study oral toxicity and toxicokinetics. Animals were assigned to groups by a stratified randomization scheme designed to achieve similar group mean body weights and the groups were randomly assigned to a dosing to provide control of bias.
# All animals were dosed via oral gavage once daily for 14 days. The animals were evaluated for changes in clinical signs (mortality/morbidity observations, twice daily), cage side observations (general appearance and behavior), food consumption (quantitatively measured by weighing), body weights, clinical pathology indices including serum chemistry, hematology, coagulation and urinalysis, and other parameters. Blood samples were collected for toxicokinetics analysis from Groups 6-10 at various time points on Days 1 and 14 (Group 6 4 hours post dose; Groups 7-10 at 1, 4 and 12 hours or 2, 8 and 24 hours). The animals were fasted for at least 8 hours prior to blood collections for serum chemistry and urine collection. Serum chemistry parameters tested included alanine aminotransferase, total protein, aspartate aminotransferase, albumin, alkaline phosphatase, globulin, gamma-glutamyl-transferase, albumin/globulin ratio, lactate dehydrogenase, glucose, total bilirubin, cholesterol, urea nitrogen, triglycerides, creatinine, sodium, calcium, potassium, phosphorus and chloride. Hematology parameters analyzed included red blood cell count, reticulocyte count, hemoglobin concentration, red blood cell distribution width, mean corpuscular volume, mean platelet volume, mean corpuscular hemoglobin concentration, white blood cell count and differentials and mean corpuscular hemoglobin. Urinalysis parameters included color/character, ketones, specific gravity, bilirubin, pH, occult blood, protein, glucose and microscopics. Main study animals were euthanized on Day 15. At termination, a full necropsy was conducted and all tissues were collected, preserved, processes and examined microscopically from Groups 1 and 5, and target organs (liver and kidney) from Groups 2-4, by a veterinary pathologist certified by the American College of Veterinary Pathologists.
# [3] = female, 1 mg/kg, oral gavage once daily, Day 15, 1 mg/kg, Female
# [4] = female, 1 mg/kg, oral gavage, Day 1, 1 mg/kg, Female
# [5] = female, 3 mg/kg, oral gavage once daily, Day 15, 3 mg/kg, Female, n = 3
# [6] = female, 3 mg/kg, oral gavage, Day 1, 3 mg/kg, Female
# [7] = female, 10 mg/kg, oral gavage once daily, Day 15, 10 mg/kg, Female, n = 4
# [8] = female, 10 mg/kg, oral gavage, Day 1, 10 mg/kg, Female
# [9] = male, 1 mg/kg, oral gavage once daily, Day 15, 1 mg/kg, Male, n = 4
# [10] = male, 1 mg/kg, oral gavage, Day 1, 1 mg/kg, Male
# [11] = male, 3 mg/kg, oral gavage once daily, Day 15, 3 mg/kg, Male
# [12] = male, 3 mg/kg, oral gavage, Day 1, 3 mg/kg, Male
# [13] = male, 10 mg/kg, oral gavage once daily, Day 15, 10 mg/kg, Male, n = 2
# [14] = male, 10 mg/kg, oral gavage, Day 1, 10 mg/kg, Male
compound,measurement,setting,value
"N#Cc1ccc(N2CCC[C@@H]2[C@@H](O)C(F)(F)F)cc1C(F)(F)F [Compound 102, R,R-4-(2-(1-Hydroxyl-2,2,2-trifluoroethyl)-pyrrolidinyl)-2-trifluoromethyl-benzonitrile]",dose dependence of systemic exposure,"[1]; 1, 3 and 10 mg/kg dose levels",dose proportional increase of systemic exposure
same,sex difference of systemic exposure,[1]; Day 1 and Day 15,Female rats showed higher systemic exposure than male rats
same,AUC(0-inf),[1]; [3],443 ng·h/mL
same,Cmax,[1]; [3],45 ng/mL
same,Tmax,[1]; [3],1.8 h
same,half-life,[1]; [3],4.6 h
same,AUC,[1]; [3],428 ng·h/mL
same,AUC(0-inf),[1]; [4],436 ng·h/mL
same,Cmax,[1]; [4],41 ng/mL
same,Tmax,[1]; [4],1.4 h
same,half-life,[1]; [4],5.4 h
same,AUC,[1]; [4],413 ng·h/mL
same,AUC(0-inf),[1]; [5],1160 ng·h/mL
same,Cmax,[1]; [5],139 ng/mL
same,Tmax,[1]; [5],1.8 h
same,half-life,[1]; [5],3.7 h
same,AUC,[1]; [5],1000 ng·h/mL
same,AUC(0-inf),[1]; [6],1260 ng·h/mL
same,Cmax,[1]; [6],129 ng/mL
same,Tmax,[1]; [6],2.6 h
same,half-life,[1]; [6],4.8 h
same,AUC,[1]; [6],1210 ng·h/mL
same,AUC(0-inf),[1]; [7],4540 ng·h/mL
same,Cmax,[1]; [7],389 ng/mL
same,Tmax,[1]; [7],2 h
same,half-life,[1]; [7],5.4 h
same,AUC,[1]; [7],4280 ng·h/mL
same,AUC(0-inf),[1]; [8],4210 ng·h/mL
same,Cmax,[1]; [8],366 ng/mL
same,Tmax,[1]; [8],1.4 h
same,half-life,[1]; [8],5.6 h
same,AUC,[1]; [8],3960 ng·h/mL
same,AUC(0-inf),[1]; [9],297 ng·h/mL
same,Cmax,[1]; [9],52 ng/mL
same,Tmax,[1]; [9],1.3 h
same,half-life,[1]; [9],4.6 h
same,AUC,[1]; [9],288 ng·h/mL
same,AUC(0-inf),[1]; [10],1110 ng·h/mL
same,Cmax,[1]; [10],14 ng/mL
same,Tmax,[1]; [10],1.2 h
same,half-life,[1]; [10],5.2 h
same,AUC,[1]; [10],104 ng·h/mL
same,AUC(0-inf),[1]; [11],893 ng·h/mL
same,Cmax,[1]; [11],133 ng/mL
same,Tmax,[1]; [11],1.2 h
same,half-life,[1]; [11],4.1 h
same,AUC,[1]; [11],876 ng·h/mL
same,AUC(0-inf),[1]; [12],341 ng·h/mL
same,Cmax,[1]; [12],51 ng/mL
same,Tmax,[1]; [12],1.2 h
same,half-life,[1]; [12],4.6 h
same,AUC,[1]; [12],318 ng·h/mL
same,AUC(0-inf),[1]; [13],2670 ng·h/mL
same,Cmax,[1]; [13],345 ng/mL
same,Tmax,[1]; [13],1.5 h
same,half-life,[1]; [13],3.9 h
same,AUC,[1]; [13],2620 ng·h/mL
same,AUC(0-inf),[1]; [14],1300 ng·h/mL
same,Cmax,[1]; [14],176 ng/mL
same,Tmax,[1]; [14],1.2 h
same,half-life,[1]; [14],3.5 h
same,AUC,[1]; [14],1290 ng·h/mL
same,sex difference of systemic exposure,[2]; Day 1,higher systemic exposure in females across all dose levels
same,systemic exposure at 700 mg/kg/day,"[2]; Day 1, 700 mg/kg/day","not increased, indicating that absorption was saturated"
same,systemic exposure versus dose,"[2]; Day 1, male and female rats",increased with increasing dose up to 300 mg/kg/day
same,effect of repeat administration on systemic exposure,"[2]; Day 14 vs Day 1, more pronounced in high dose groups",decreased systemic exposure

# Source: patent publication US11358931B2, “Selective androgen receptor modulators (SARMs) and uses thereof” (priority 2007, dated 2022)
